Results on eleven compounds are retold here after patent US20150299125A1, “PRODRUG BIPYRIDYLAMINOPYRIDINES AS SYK INHIBITORS” (MERCK SHARP & DOHME CORP., priority 2012, published 2015).

Values after ≈ are worked out from the molar mass of the structure shown. Bounds are passed on as bounds.

The target of data set [1] is T1, recombinant human GST-Syk (Homo sapiens, UniProt P43405).
T1 construct: purchased Carna Biosciences 08-176
The data set can be described thus: Homogeneous Time-Resolved Fluorescence (HTRF) assay for the recombinant human Syk enzyme. The class given is biochemical. To be noted: recombinant human GST-Syk 5 pM, ATP 25 μM, read-out: IC50. The procedure, abridged:
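HTRF read-out, taken 30 min after adding 2 nM europium anti-pTyr antibody plus 70 nM streptavidin-APC in 40 mM EDTA/Tris pH 7.5, detects peptide phosphorylated by GST-tagged human Syk during a 45-min room-temperature reaction.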
In general terms: In TR-FRET formats the signal depends on donor and acceptor labels being close together.

The nature of data set [2]: Solubility in biorelevant fasted state simulated intestinal fluid (FaSSIF). It is filed as physicochemical. To be noted: 25 °C, fassif, kinetic from dmso stock, Solubility. The procedure, abridged:
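Compound from 10 mM DMSO stock diluted into FaSSIF (maximum solubility approximately 200 μM), equilibrated, then filtered by centrifugation through a 0.45 μm polypropylene membrane. Filtrate and a 100 μM standard analysed by HPLC/DAD; solubility = (sample peak area/standard peak area) × standard concentration.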

Data set [3] is described as follows: Conversion of prodrug to parent in in vitro biorelevant gastrointestinal tract media. It is filed as in vitro ADME. The following applies: 37° C.; for Conversion in SGF, time: simulated gastric fluid. How it is done: Conversion of Prodrug to Parent in In Vitro Biorelevant Gastrointestinal Tract Media: The likely stability of prodrugs in the gastrointestinal tract can be estimated by incubating a prodrug in simulated gastric and intestinal fluids; compounds were measured for stability in simulated gastric fluid (SGF), fasted state simulated intestinal fluid (FaSSIF), and fasted state simulated intestinal fluid plus pancreatin (FaSSIF+pancreatin). Prodrug stock solutions were made by diluting 2 mg of compound in 200 μL DMSO. A 10 mg/mL Pancreatin in FaSSIF stock solution was made by dissolving 10 mg Pancreatin in 1 mL FaSSIF. Samples were prepared by diluting 10 μL of compound stock solution into 990 μL of biorelevant media (990 μL SGF, 990 μL FaSSIF, or 940 μL FaSSIF plus 50 μL Pancreatin stock) in a 2 mL HPLC vial and vortexing the mixture for a few seconds. The samples were incubated at 37° C. and aliquots were removed for up to 24 hours and injected directly on an HPLC to determine the conversion of prodrug to active drug. In the case of compound precipitation upon sample preparation, an individual sample was prepared for each desired time point and the entire sample was diluted with a known volume of acetonitrile/water (50/50) to ensure compound dissolution before HPLC analysis.

Data set [4] can be described thus: Conversion of prodrug to parent in intestine homogenate. The class given is in vitro ADME. The following applies: prodrug 1 μM, intestine S9 1 mg protein/mL, 37° C., pH 7.4, 2 h. The procedure: Conversion of Prodrug to Parent in Intestine Homogenate:
(§1) The likely stability of prodrugs in the intestine can be estimated by incubating a prodrug with intestine homogenate. Incubations of prodrugs (1 μM) with intestine S9 (1 mg protein/mL) were carried out at 37° C. in a phosphate buffer, pH 7.4. Control incubations contained BSA (1.1 mg/mL) instead of intestine S9 microsomes. Aliquots were removed at 0, 5, 15, 30, 60 and 120 min, treated with 4 volumes of acetonitrile containing 2% formic acid and an internal standard, and centrifuged. The supernatants were analyzed by LC-MS/MS for prodrug disappearance and appearance of active drug. The half-life of the prodrug was calculated from the % prodrug remaining at different time points calculated from on the peak area ratio relative to t=0. The amount of active drug generated at the different time points was determined using a standard curve.

Data set [5] can be described thus: Conversion of prodrug to parent in liver homogenate. The following applies: prodrug 1 μM, liver S9 1 mg protein/mL, 37° C., pH 7.4, 2 h. The class given is in vitro ADME. How it is done: Conversion of Prodrug to Parent in Liver Homogenate:
as §1, with “liver” for “intestine”

With `Cc1cc(Nc2cc(C(F)F)ccn2)nc(-c2ccc([C@](C)(O)[C@H]3CC[C@H](C(=O)OCC4CCNCC4)CC3)nc2)c1` [Example 1-21, piperidin-4-ylmethyl trans-4-[(1R)-1-(6-{[4-(difluoromethyl)pyridin-2-yl]amino}-4-methyl-2,3′-bipyridin-6′-yl)-1-hydroxyethyl] cyclohexanecarboxylate], the IC50 – broadly, the concentration that gives 50% inhibition – in data set [1] was found to be 2.3 nM. Also, the solubility (commonly how much of the substance goes into solution per volume) in data set [2] was 167 µM (≈ 96.8 µg/mL). The “Conversion in FaSSIF + Pancreatin, time” value in data set [3] (3 h) is 100%, 3 h. Also, in data set [3] (5 h), the “Conversion in FaSSIF, time” value is 0%, 5 h and the “Conversion in SGF, time” value is 0%, 5 h.
On to `Cc1cc(Nc2cc(C(F)F)ccn2)nc(-c2ccc([C@](C)(O)[C@H]3CC[C@H](C(=O)OCOC(=O)OCCCCCCN(C)C)CC3)nc2)c1` [Example 2-7, [({[6-(dimethylamino)hexyl]oxy}carbonyl)oxy]methyl trans-4-[(1R)-1-(6-{[4-(difluoromethyl)pyridin-2-yl]amino}-4-methyl-2,3′-bipyridin-6′-yl)-1-hydroxyethyl]cyclo hexanecarboxylate], for which, in data set [1], the IC50 turned out to be 78 nM. In data set [2], this compound returned a solubility of 119 µM (≈ 81.4 µg/mL). For the same compound, the “Conversion in FaSSIF + Pancreatin, time” value in data set [3] (3 h) is recorded as 20%, 3 h. In data set [3] (5 h), the “Conversion in FaSSIF, time” value was 0%, 5 h and the “Conversion in SGF, time” value was 0%, 5 h.
On to `Cc1cc(Nc2cc(C(F)F)ccn2)nc(-c2ccc([C@](C)(O)[C@H]3CC[C@H](C(=O)OCCOP(=O)(O)O)CC3)nc2)c1` [Example 8-2, 2-(phosphonooxy)ethyl trans-4-[(1R)-1-(6-{[4-(difluoromethyl)pyridin-2-yl]amino}-4-methyl-2,3′-bipyridin-6′-yl)-1-hydroxyethyl]cyclohexane-carboxylate], for which, in data set [4], the “Prodrug concentration at 2 h” value was found to be 0.249 µM. For the same compound, the IC50 in data set [1] is less than 0.5 nM. Besides, the “Prodrug concentration at 2 h” value in data set [5] was determined as 0.434 µM. The compound further gave a solubility in data set [2] of 161 µM (≈ 97.7 µg/mL). For the same compound, the “Conversion in FaSSIF + Pancreatin, time” value in data set [3] (3 h) is given as 20%, 3 h. For the same compound, in data set [3] (5 h), the “Conversion in FaSSIF, time” value is listed as 0%, 5 h and the “Conversion in SGF, time” value is 0%, 5 h.
For `Cc1cc(Nc2cc(C(F)F)ccn2)nc(-c2ccc([C@](C)(O)[C@H]3CC[C@H](C(=O)OCC[S@@+](C)[O-])CC3)nc2)c1` (single isomer, unassigned) [Example 7-1a], the results for the “Prodrug concentration at 2 h” value in data set [4] and in data set [5] were 0.385 µM and 0 µM, respectively. Also, the IC50 in data set [1] was found to be 4.2 nM. Also, the concentration in solution in data set [2] (solubility) came to 56 µM (≈ 32.1 µg/mL).
With `Cc1cc(Nc2cc(C(F)F)ccn2)nc(-c2ccc([C@](C)(O)[C@H]3CC[C@H](C(=O)OCOC(=O)C4CCNCC4)CC3)nc2)c1` [Example 3-1], the IC50 in data set [1] was 27 nM. In data set [2], the concentration in solution (solubility) was 147 µM (≈ 91.7 µg/mL). In data set [3] (3 h), the “Conversion in FaSSIF + Pancreatin, time” value is listed as 100%, 3 h and the “Conversion in FaSSIF, time” value is 100%, 3 h. The “Conversion in SGF, time” value in data set [3] (5 h) was 0%, 5 h.
In the case of `Cc1cc(Nc2cc(C(F)F)ccn2)nc(-c2ccc([C@](C)(O)[C@H]3CC[C@H](C(=O)OCOC(=O)OCCCS(C)(=O)=O)CC3)nc2)c1` [Example 7-2, ({[3-(Methylsulfonyl)propoxy]carbonyl}oxy)methyl trans-4-[(1R)-1-(6-{[4-(difluoromethyl)pyridin-2-yl]amino}-4-methyl-2,3′-bipyridin-6′-yl)-1-hydroxyethyl]cyclohexanecarboxylate], the entries for the “Prodrug concentration at 2 h” value in data set [4] and in data set [5] were 0.092 µM and 0.12 µM, respectively. The IC50 in data set [1] came to 7.5 nM.
With `CNCCCOC(=O)[C@H]1CC[C@H]([C@@](C)(O)c2ccc(-c3cc(C)cc(Nc4cc(C(F)F)ccn4)n3)cn2)CC1` [Example 1-22, 3-(methylamino)propyl trans-4-[(1R)-1-(6-{[4-(difluoromethyl)pyridin-2-yl]amino}-4-methyl-2,3′-bipyridin-6′-yl)-1-hydroxyethyl] cyclohexanecarboxylate], the IC50 in data set [1] came to 1.8 nM. Besides, the solubility in data set [2] is 183 µM (≈ 101 µg/mL). Besides, in data set [3] (3 h), the “Conversion in FaSSIF + Pancreatin, time” value was 100%, 3 h. Also, in data set [3] (5 h), the “Conversion in FaSSIF, time” value is 0%, 5 h and the “Conversion in SGF, time” value is 0%, 5 h.
`Cc1cc(Nc2cc(C(F)F)ccn2)nc(-c2ccc([C@](C)(O)[C@H]3CC[C@H](C(=O)OCOC(=O)OCCOCCOCCOCCOP(=O)(O)O)CC3)nc2)c1` [Example 8-1, 17,17-Dihydroxy-17-oxido-3-oxo-2,4,7,10,13,16-hexaoxa-17λ^5-phosphaheptadec-1-yl trans-4-[(1R)-1-(6-{[4-(difluoromethyl)pyridin-2-yl]amino}-4-methyl-2,3′-bipyridin-6′-yl)-1-hydroxyethyl]cyclohexanecarboxylate]: the “Prodrug concentration at 2 h” value in data set [4] and in data set [5] was 0 µM in each case. In addition, the IC50 in data set [1] was less than 0.5 nM. The compound also showed a solubility in data set [2] of 154 µM (≈ 125 µg/mL).
In the case of `COCCN(C)C(=O)OC(C)OC(=O)[C@H]1CC[C@H]([C@@](C)(O)c2ccc(-c3cc(C)cc(Nc4cc(C(F)F)ccn4)n3)cn2)CC1` (mixture of isomers) [Example 4-1, 1-{[(2-methoxyethyl)(methyl)carbamoyl]oxy}ethyl trans-4-[(1R)-1-(6-{[4-(difluoromethyl)pyridin-2-yl]amino}-4-methyl-2,3′-bipyridin-6′-yl)-1-hydroxyethyl]cyclohexanecarboxylate], the figures for the “Prodrug concentration at 2 h” value in data set [4] and in data set [5] were 0.539 µM and 0 µM, respectively. Besides, the IC50 in data set [1] stood at 20.7 nM.
Take `Cc1cc(Nc2cc(C(F)F)ccn2)nc(-c2ccc([C@](C)(O)[C@H]3CC[C@H](C(=O)O[C@H]4CC[C@H](N)CC4)CC3)nc2)c1` [Example 1-23, trans-4-aminocyclohexyl trans-4-[(1R)-1-(6-{[4-(difluoromethyl)pyridin-2-yl]amino}-4-methyl-2,3′-bipyridin-6′-yl)-1-hydroxyethyl] cyclohexanecarboxylate]: the half-maximal inhibitory concentration (IC50) in data set [1] was 1.6 nM. In addition, the concentration in solution in data set [2] (solubility) came to 131 µM (≈ 75.9 µg/mL). For the same compound, in data set [3] (3 h), the “Conversion in FaSSIF + Pancreatin, time” value is recorded as 100%, 3 h. Moreover, in data set [3] (5 h), the “Conversion in FaSSIF, time” value is on record as 0%, 5 h and the “Conversion in SGF, time” value is 0%, 5 h.
With `CCOCCOCCOC(=O)OC(OC(=O)[C@H]1CC[C@H]([C@@](C)(O)c2ccc(-c3cc(C)cc(Nc4cc(C(F)F)ccn4)n3)cn2)CC1)C(C)C` (stereo partly drawn) [Example 2-17, 1-(1-methylethyl)-3-oxo-2,4,7,10-tetraoxadodec-1-yl trans-4-[(1R)-1-(6-{[4-(difluoromethyl)pyridin-2-yl]amino}-4-methyl-2,3′-bipyridin-6′-yl)-1-hydroxyethyl]cyclo hexanecarboxylate], the “Prodrug concentration at 2 h” value in data set [4] came to 0.371 µM; in data set [5] it was 0 µM. Further, the IC50 in data set [1] was less than 0.5 nM.
